In ChEMBL document CHEMBL1158755, “Bromophenols coupled with derivatives of amino acids and nucleosides from the red alga Rhodomela confervoides” (J Nat Prod, 2005):

Legend:
Bel-7402 = test: Cytotoxicity against human Bel7402 cells by MTT assay; format: functional, cell-based
HCT-8 = test: Cytotoxicity against human HCT8 cells by MTT assay; format: functional, cell-based
MCF7 = test: Cytotoxicity against human MCF7 cells by MTT assay; format: functional, cell-based
Escherichia coli = test: Antibacterial activity against Escherichia coli; format: functional
Candida albicans = test: Antifungal activity against Candida albicans after 24 hrs; format: functional
A549 = test: Cytotoxicity against human A549 cells by MTT assay; format: functional, cell-based
Staphylococcus aureus = test: Antibacterial activity against Staphylococcus aureus; format: functional
BGC-823 = test: Cytotoxicity against human BGC823 cells by MTT assay; format: functional, cell-based

| MIC50 (Escherichia coli) | MIC50 (Candida albicans) | MIC50 (Staphylococcus aureus) | SMILES | IC50 (Bel-7402) | IC50 (HCT-8) | IC50 (MCF7) | IC50 (A549) | IC50 (BGC-823) |
| --- | --- | --- | --- | --- | --- | --- | --- | --- |
| > 100 µg/mL | > 100 µg/mL | > 100 µg/mL | COC(=O)C1CCC(=O)N1Cc1cc(O)c(O)c(Br)c1Cc1cc(O)c(O)c(Br)c1Br (configuration not stated) | > 10 µg/mL | > 10 µg/mL | > 10 µg/mL | > 10 µg/mL | > 10 µg/mL |
| > 100 µg/mL | > 100 µg/mL | > 100 µg/mL | COC(=O)C1CCC(=O)N1Cc1cc(O)c(O)c(Br)c1Br (configuration not stated) | > 10 µg/mL | > 10 µg/mL | > 10 µg/mL | > 10 µg/mL | > 10 µg/mL |
| > 100 µg/mL | > 100 µg/mL | > 100 µg/mL | OC[C@H]1O[C@@H](n2cnc3cnc(NCc4cc(O)c(O)c(Br)c4Br)nc32)[C@H](O)[C@@H]1O | > 10 µg/mL | > 10 µg/mL | > 10 µg/mL | > 10 µg/mL | > 10 µg/mL |
| > 100 µg/mL | > 100 µg/mL | > 100 µg/mL | O=C(O)C1CCC(=O)N1Cc1cc(O)c(O)c(Br)c1Br (configuration not stated) | > 10 µg/mL | > 10 µg/mL | > 10 µg/mL | > 10 µg/mL | > 10 µg/mL |
